Assay results from US10494380B2, “Nitrogen-containing tricyclic derivatives having HIV replication inhibitory activity” (priority 2015, dated 2019).

These compounds were tested on T125A mutant virus (HIV-1 NL-432 recombinant molecular clone, IN gene) (assay: HIV replication inhibition assay against integrase 124/125 mutant virus (Test Example 2)). Conditions: Human immunodeficiency virus 1, MT4, read-out: EC50 against T125A mutant virus, T125A mutant virus (HIV-1 NL-432 IN gene), MT-4 cells, MTT.
Type: cell-based
Protocol: Persistently HIV (HTLV-IIIB strain) infected human T cell strain Molt-4 clone8 was cultured in RPMI-1640 medium supplemented with 10% fetal bovine serum and the supernatant was filtered, then the virus titer was measured and stored at −80° C. Polymorphic mutations in HIV-1-infected patients have been observed in amino acids 124 and 125 on the HIV-1 integrase (IN) gene. A point mutation was introduced on the amino acids 124 and/or 125 of IN gene of the HIV-1 NL-432 recombinant molecular clone to generate a mutant virus plasmid construct. These mutant virus plasmids were transfected into 293T cells, and after two days, the supernatant was filtered and then the virus titer was measured and stored at −80° C. Each anti-HIV active substance was diluted with culture medium described above to the designated concentration, which was dispensed into 96-well microtiter plate by 50 μL. Next, 100 μL of MT-4 cell suspension (2.5×10^4 cells) was dispensed into each well, then 50 μl of HIV-containing supernatant diluted with culture medium described above was added thereto (60 pfu (plaque forming unit)).
Cells were cultured at 37° C. in CO2 incubator for four days, then 30 μL of MTT (3-(4,5-dimethylthiazole-2-yl)-2,5-diphenyltetrazolyum bromide) reagent (5 mg/mL in PBS) was added to all wells followed by incubation for 1 hour. In this step, MTT was reduced to insoluble formazan in living cells. To elute generated formazan, 150 μL of the culture supernatant was removed from all wells, then 150 μL of cell lysis solution (10% Triton X-100 and 0.4% (v/v)-HCl containing isopropanol) was added thereto, followed by shaking with a plate mixer. The formazan was measured with micro plate reader at OD: 560 nm and 690 nm (reference wavelength) and the result was compared with the reference wells. EC50 means the compound concentration at which 50% of cytotoxicity caused by virus infection is inhibited.

Going from `Cc1ccc(-c2c([C@H](OC(C)(C)C)C(=O)O)c(C)c3c4c2cc(C)n4C(C)CN3CCN(C)C)cc1` (mixture of isomers) [Compound I-144] to `Cc1c([C@H](OC(C)(C)C)C(=O)O)c(-c2ccc(Cl)cc2)c2cc(C)n3c2c1N(CCN(C)C)CC3` [Compound I-075], the EC50 falls from 37 nM to 24 nM (1.5-fold). The second is the more potent here.

`Cc1c([C@H](OC(C)(C)C)C(=O)O)c(-c2ccc(Cl)cc2)c2cc(C)n3c2c1N(S(=O)(=O)CCN(C)C)CC3` [Compound I-030] and `Cc1c([C@H](OC(C)(C)C)C(=O)O)c(-c2ccc(Cl)cc2)c2cc(C)n3c2c1N(S(C)(=O)=O)CCC3` [Compound I-078] are within 1.5-fold of each other in EC50: 23 nM for the first, 21 nM for the second.

Going from `COC(=O)N1CCn2c(C)cc3c(-c4ccc(Cl)cc4)c([C@H](OC(C)(C)C)C(=O)O)c(C)c1c32` [Compound I-031] to `CCOC(=O)N1CCn2c(C)cc3c(-c4ccc(Cl)cc4)c([C@H](OC(C)(C)C)C(=O)O)c(C)c1c32` [Compound I-064], the EC50 rises from 11 nM to 19 nM (1.7-fold). The first is the more potent here.

Compared with `Cc1c([C@H](OC(C)(C)C)C(=O)O)c(-c2ccc(Cl)cc2)c2cc(C)n3c2c1N(S(=O)(=O)C1CC1)CC3` [Compound I-032], `Cc1c([C@H](OC(C)(C)C)C(=O)O)c(-c2ccc(Cl)cc2)c2cc(Cl)n3c2c1N(S(C)(=O)=O)CC3` [Compound I-094] is 2.4-fold higher in EC50: 5 nM for the first, 12 nM for the second. The first is the more potent here.

First: [2H]C1([2H])N(S(C)(=O)=O)c2c(C)c([C@H](OC(C)(C)C)C(=O)O)c(-c3ccc(Cl)cc3)c3cc(C)n(c23)C1([2H])[2H] [Compound I-034]
Second: [2H]C1([2H])N(C)c2c(C)c([C@H](OC(C)(C)C)C(=O)O)c(-c3ccc(Cl)cc3)c3cc(C)n(c23)C1([2H])[2H] [Compound I-066]
The EC50 of the first is 2.4-fold higher: 9.6 nM for the first, 4 nM for the second.

`Cc1c([C@H](OC(C)(C)C)C(=O)O)c(-c2ccc(Cl)cc2)c2cc(C)n3c2c1N(CC(F)F)CC3` [Compound I-035] and `COCCN1CCn2c(C)cc3c(-c4ccc(Cl)cc4)c([C@H](OC(C)(C)C)C(=O)O)c(C)c1c32` [Compound I-076] are within 1.5-fold of each other in EC50: 14 nM for the first, 16 nM for the second.

First: Cc1c([C@H](OC(C)(C)C)C(=O)O)c(-c2ccc(Cl)cc2)c2cc(C)n3c2c1N(S(C)(=O)=O)[C@@H](C)C3 [Compound I-036]
Second: Cc1c([C@H](OC(C)(C)C)C(=O)O)c(-c2ccc(Cl)cc2)c2cc(C)n3c2c1N(S(C)(=O)=O)[C@H](C)C3 [Compound I-060]
The EC50 of the first is 2.2-fold lower: 6.5 nM for the first, 14 nM for the second. The first is the more potent here.

`Cc1c([C@H](OC(C)(C)C)C(=O)O)c(-c2ccc(Cl)cc2)c2c(Cl)c(C)n3c2c1N(C)CC3` [Compound I-037] and `Cc1c([C@H](OC(C)(C)C)C(=O)O)c(-c2ccc(Cl)cc2)c2c(C)c(C)n3c2c1N(C)CC3` [Compound I-080] are within 1.5-fold of each other in EC50: 30 nM for the first, 33 nM for the second.

Compared with `CCNC(=O)N1CCn2c(C)cc3c(-c4ccc(Cl)cc4)c([C@H](OC(C)(C)C)C(=O)O)c(C)c1c32` [Compound I-038], `Cc1c([C@H](OC(C)(C)C)C(=O)O)c(-c2ccc(Cl)cc2)c2cc(C)n3c2c1N(C)CCC3` [Compound I-079] is 2.6-fold lower in EC50: 45 nM for the first, 17 nM for the second. The second is the more potent here.

`[2H]C1([2H])N(S(C)(=O)=O)c2c(C)c([C@H](OC(C)(C)C)C(=O)O)c(-c3ccc(Cl)cc3)c3c(F)c(C)n(c23)C1([2H])[2H]` [Compound I-040] and `Cc1c([C@H](OC(C)(C)C)C(=O)O)c(-c2ccc(Cl)cc2)c2c(F)c(C)n3c2c1N(S(C)(=O)=O)CC3` [Compound I-052] are within 1.5-fold of each other in EC50: 11 nM for the first, 9 nM for the second.

Compared with `Cc1c([C@H](OC(C)(C)C)C(=O)O)c(-c2ccc(Cl)cc2)c2cc(C)n3c2c1N(S(C)(=O)=O)[C@@H](CCN1CCOCC1)C3` [Compound I-045], `Cc1c([C@H](OC(C)(C)C)C(=O)O)c(-c2ccc(Cl)cc2)c2cc(C)n3c2c1N(S(C)(=O)=O)[C@@H](CF)C3` [Compound I-095] is 4.1-fold lower in EC50: 58 nM for the first, 14 nM for the second.

Going from `CC(=O)N1c2c(C)c([C@H](OC(C)(C)C)C(=O)O)c(-c3ccc(Cl)cc3)c3cc(C)n(c23)C[C@@H]1C` [Compound I-046] to `CC(=O)N1c2c(C)c([C@H](OC(C)(C)C)C(=O)O)c(-c3ccc(Cl)cc3)c3cc(C)n(c23)C[C@H]1C` [Compound I-061], the EC50 falls from 18 nM to 9.6 nM (1.9-fold).

Going from `COCC(=O)N1CCn2c(C)cc3c(-c4ccc(C)cc4)c([C@H](OC(C)(C)C)C(=O)O)c(C)c1c32` [Compound I-047] to `COc1ccc(-c2c([C@H](OC(C)(C)C)C(=O)O)c(C)c3c4c2cc(C)n4CCN3C)cc1` [Compound I-074], the EC50 falls from 46 nM to 27 nM (1.7-fold).

Going from `Cc1c([C@H](OC(C)(C)C)C(=O)O)c(-c2ccc(C(F)F)cc2)c2cc(C)n3c2c1N(C)CC3` [Compound I-049] to `Cc1c([C@H](OC(C)(C)C)C(=O)O)c(-c2ccc(C(F)(F)F)cc2)c2cc(C)n3c2c1N(C)CC3` [Compound I-050], the EC50 rises from 22 nM to 49 nM (2.2-fold).

Compared with `Cc1c(F)cc(-c2c([C@H](OC(C)(C)C)C(=O)O)c(C)c3c4c2cc(C)n4CCN3C)cc1F` [Compound I-051], `Cc1c([C@H](OC(C)(C)C)C(=O)O)c(-c2cc(F)c(Cl)c(F)c2)c2cc(C)n3c2c1N(C)CC3` [Compound I-073] is 1.8-fold higher in EC50: 22 nM for the first, 39 nM for the second.

Compared with `Cc1c([C@H](OC(C)(C)C)C(=O)O)c(-c2ccc(Cl)cc2)c2cc(C)n3c2c1N(C)[C@@H](C)C3` [Compound I-053], `Cc1c([C@H](OC(C)(C)C)C(=O)O)c(-c2ccc(Cl)cc2)c2cc(C)n3c2c1N(C)[C@H](C)C3` [Compound I-057] is 2.1-fold lower in EC50: 5.6 nM for the first, 2.7 nM for the second.

Compared with `Cc1c([C@H](OC(C)(C)C)C(=O)O)c(-c2ccc(Cl)cc2)c2cc(C)n3c2c1NC(=O)C3C` (stereo partly shown) [Compound I-054], `Cc1c([C@H](OC(C)(C)C)C(=O)O)c(-c2ccc(Cl)cc2)c2cc(C)n3c2c1N(C)S(=O)(=O)C3` [Compound I-072] is 3.7-fold lower in EC50: 48 nM for the first, 13 nM for the second.

Compared with `Cc1c([C@H](OC(C)(C)C)C(=O)O)c(-c2ccc(Cl)cc2)c2ccn3c2c1N(S(C)(=O)=O)CC3` [Compound I-056], `Cc1c([C@H](OC(C)(C)C)C(=O)O)c(-c2ccc(F)cc2)c2cc(C)n3c2c1N(S(C)(=O)=O)CC3` [Compound I-096] is 3.1-fold lower in EC50: 59 nM for the first, 19 nM for the second.

`COC(=O)N1c2c(C)c([C@H](OC(C)(C)C)C(=O)O)c(-c3ccc(Cl)cc3)c3cc(C)n(c23)C[C@@H]1C` [Compound I-065] and `CCC(=O)N1c2c(C)c([C@H](OC(C)(C)C)C(=O)O)c(-c3ccc(Cl)cc3)c3cc(C)n(c23)C[C@@H]1C` [Compound I-069] are within 1.5-fold of each other in EC50: 12 nM for the first, 16 nM for the second.

`Cc1ccc(-c2c([C@H](OC(C)(C)C)C(=O)O)c(C)c3c4c2cc(Cl)n4CCN3C)cc1` [Compound I-068] and `Cc1ccc(-c2c([C@H](OC(C)(C)C)C(=O)O)c(C)c3c4c2cc(Br)n4CCN3C)cc1` [Compound I-081] are within 1.5-fold of each other in EC50: 6.8 nM for the first, 9.6 nM for the second.

First: Cc1c([C@H](OC(C)(C)C)C(=O)O)c(-c2ccc(Cl)cc2)c2cc(C)n3c2c1N(C(=O)C1CC1)[C@@H](C)C3 [Compound I-070]
Second: Cc1c([C@H](OC(C)(C)C)C(=O)O)c(-c2ccc(Cl)cc2)c2cc(C)n3c2c1N(CC1CC1)[C@@H](C)C3 [Compound I-083]
The EC50 of the first is 2.9-fold higher: 43 nM for the first, 15 nM for the second.

Compared with `Cc1c([C@H](OC(C)(C)C)C(=O)O)c(-c2ccc(Cl)cc2)c2cc(C)n3c2c1N(C)S(=O)(=O)CC3` [Compound I-071], `CCc1ccc(-c2c([C@H](OC(C)(C)C)C(=O)O)c(C)c3c4c2cc(C)n4CCN3C)cc1` [Compound I-082] is 7.4-fold lower in EC50: 45 nM for the first, 6.1 nM for the second. The second is the more potent here.

Compared with `COC[C@H]1Cn2c(C)cc3c(-c4ccc(Cl)cc4)c([C@H](OC(C)(C)C)C(=O)O)c(C)c(c32)N1S(C)(=O)=O` [Compound I-086], `COC[C@@H]1Cn2c(C)cc3c(-c4ccc(Cl)cc4)c([C@H](OC(C)(C)C)C(=O)O)c(C)c(c32)N1S(C)(=O)=O` [Compound I-087] is 1.8-fold higher in EC50: 11 nM for the first, 20 nM for the second.

First: Cc1c([C@H](OC(C)(C)C)C(=O)O)c(-c2ccc(Cl)cc2)c2cc(C)n3c2c1N(S(C)(=O)=O)[C@@H](C(F)F)C3 [Compound I-088]
Second: Cc1c([C@H](OC(C)(C)C)C(=O)O)c(-c2ccc(F)cc2)c2cc(C)n3c2c1N(C)[C@H](C)C3 [Compound I-092]
The EC50 of the first is 3.6-fold higher: 27 nM for the first, 7.6 nM for the second. The second is the more potent here.

`COCCN1CCn2c(C)cc3c(-c4ccc(F)cc4)c([C@H](OC(C)(C)C)C(=O)O)c(C)c1c32` [Compound I-089] and `Cc1c([C@H](OC(C)(C)C)C(=O)O)c(-c2ccc(F)cc2)c2cc(C)n3c2c1N(C)[C@@H](C)C3` [Compound I-093] are within 1.5-fold of each other in EC50: 18 nM for the first, 16 nM for the second.

Same assay, conditions: read-out: EC50 against T125A mutant virus; T125A mutant virus (HIV-1 NL-432 IN gene), MT-4 cells, MTT

Going from `Cc1c([C@H](OC(C)(C)C)C(=O)O)c(-c2ccc(Cl)cc2)c2cc(C)n3c2c1NC(=O)C3C` (stereo partly shown) [Compound I-055] to `Cc1c([C@H](OC(C)(C)C)C(=O)O)c(-c2ccc(Cl)cc2)c2cc(C)n3c2c1N(C)CC3C` (stereo partly shown) [Compound I-090], the EC50 rises from 24 nM to 39 nM (1.6-fold). The first is the more potent here.

Compared with `Cc1c([C@H](OC(C)(C)C)C(=O)O)c(-c2ccc(Cl)cc2)c2cc(C)n3c2c1N(S(C)(=O)=O)CC3C` (stereo partly shown) [Compound I-062], `Cc1c([C@H](OC(C)(C)C)C(=O)O)c(-c2ccc(Cl)cc2)c2cc(C)n3c2c1N(C)CC3C` (stereo partly shown) [Compound I-091] is 17-fold lower in EC50: 34 nM for the first, 2 nM for the second. The second is the more potent here.

`Cc1c([C@H](OC(C)(C)C)C(=O)O)c(-c2ccc(Cl)cc2)c2cc(C)n3c2c1N(S(C)(=O)=O)CC3C` (stereo partly shown) [Compound I-063] showed an EC50 of 4.5 nM.
